This note sets out measurements from patent US4767749A, “Ester of (triarylphosphoranylidene)carbamic acid having diuretic and ability to lower plasma renin properties” (American Cyanamid Company, priority 1986, dated 1988).

Assay [1] has as its system plasma renin activity. Briefly: Inhibition of evoked (drug-induced) elevation of plasma renin activity in conscious rats. It is filed as in vivo, male Wistar rats. The note with it: Rattus norvegicus, 30 min before provocative treatment; for inhibition in vivo at 25 mg/kg: 25 mg/kg oral. The protocol:
Inhibition of evoked increase of plasma renin activity was determined by the following test.
Compounds were tested for their ability to prevent drug-induced elevation of plasma renin activity (PRA) in concious, male Wistar rats (180-200 g, Charles River Lab.). PRA elevation was induced by a combined oral provacative treatment (C) of hydrochlorothiazide (10 mg/kg) and 1-(3-benzoyl-3-mercapto-2-methylpropionyl)-L-proline, acetate (U.S. Pat. No. 4,226,775) (one mg/kg), prepared by compounding in a mortar and pestle with preboiled 3% starch suspension. This treatment provided the daily maximum PRA. The daily minimum PRA was obtained from rats given oral starch suspension (S) alone. The magnitude of drug effect on PRA elevation was ascertained from rats pretreated orally with test agent (D), at the indicated doses, 30 minutes prior to administration of provacative treatment (C). The test agent was also compounded in preboiled 3% starch suspension. The dose volumes for both pretreatment and provocative treatment were 2 ml/kg. One hour after provocative treatment the rats were sacrificed by decapitation and the first 3 seconds of blood collected in two chilled Vacutainer® tubes (Becton-Dickinson, Rutherford, N.J.) containing 40 μl of 150 mg/ml tripotassium EDTA. The plasma fractions, obtained by centrifugation for 20 minutes at 4° C. and 3000 G, were incubated (one of each pair at 37° C., the other at 4° C.) at pH 6.8 in 50 mM phosphate buffer to produce angiotensin I. The incubates contained peptidase inhibitors to prevent angiotensin I degradation and the incubation buffer contained one mg/ml lysozyme (Sigma Grade III) used as an antiabsorbant. The incubates were diluted 20 fold in cold 100 mM Tris buffer (pH adjusted to 7.4 with glacial acetic acid) also containing one mg/ml lysozyme, and then frozen. Diluted incubates were assayed within 3 days for angiotensin I content by radioimmunoassay according to a modification of the method of Haber, et al., J. Clin. Endocrin., 29, 1349-1355 (1969).
PRA is calculated as follows:
PRA(ng AI/hour/ml plasma)=PRA 37° C.-PRA 4° C.
Percent inhibition of PRA elevation is calculated as follows: [formula]

For assay [2], the system named is spontaneously hypertensive rats (SHR). Briefly: Diuretic activity in spontaneously hypertensive rats. It is filed as in vivo, male spontaneously hypertensive rats (Okamoto strain). Particulars: 100 mg/kg by gavage with 0.9% sodium chloride loading 25 ml/kg; 0-5 hour urine. Here is the method: The diuretic activity of the compounds of this invention was also determined according to the method of Chan, P. S. and Poorvin, D., Sequential method for combined screening antihypertensive and diuretic agents in the same spontaneously hypertensive rat. Clinical and Experimental Hypertension, 1(6), 817-830 (1979).
Male spontaneously hypertensive rats (SHR) of Okamoto strain, 16 weeks old, Taconic Farms Inc. were used in the test. These rats were kept on Purina laboratory chow and tap water ad libitum for 8 weeks before use. One male adult rat (about 300 g) was dosed by gavage with a test compound at 100 mg/kg together with 0.9% sodium chloride loading at 25 ml/kg at zero hour. The test compound was suspended in 3% preboiled starch at 50 mg/ml. The rat was put in a metabolism cage. The 0-5 hour urine was collected and urinary sodium and potassium were determined using a Beckman Astra 4. The effects of representative compounds of the invention according to this test appear in Table III expressed in milliequivalents (mEQ) of urinary sodium and potassium excreted.

Broadly, the inhibition in vivo is the change of the read-out against control, counted positive when it falls. Read a high inhibition in vivo as a strong effect. On to `Cc1ccccc1P(=NC(=O)OC1CCOC1)(c1ccccc1)c1ccccc1` (centres unmarked) [[(2-Methylphenyl)diphenylphosphoranylidene]carbamic acid, tetrahydro-3-furanyl ester], for which the inhibition in vivo at 25 mg/kg in assay [1] stood at 93%. In addition, in assay [2], the “Potassium (urinary excretion)” value is 0.97 mEQ/5 Hours, the “Sodium (urinary excretion)” value worked out at 2.71 mEQ/5 Hours and the “Volume (urine)” value is 22.3 mL.

Take `Cc1ccccc1P(=NC(=O)OCC1CC1)(c1ccccc1)c1ccccc1` [[(2-methylphenyl)diphenylphosphoranylidene]carbamic acid, cyclopropylmethyl ester]: in assay [1], the inhibition in vivo at 25 mg/kg was 72%. Further, in assay [2], the “Potassium (urinary excretion)” value stood at 0.73 mEQ/5 Hours, the “Sodium (urinary excretion)” value stood at 1.33 mEQ/5 Hours and the “Volume (urine)” value came out at 12.0 mL.

`COC(=O)N=P(c1ccccc1)(c1ccccc1)c1ccccc1` [(Triphenylphosphoranylidene)carbamic acid, methyl ester] yielded an inhibition in vivo at 25 mg/kg in assay [1] of 72%. For the same compound, in assay [2], the “Potassium (urinary excretion)” value is 0.55 mEQ/5 Hours, the “Sodium (urinary excretion)” value stood at 2.53 mEQ/5 Hours and the “Volume (urine)” value turned out to be 23.3 mL.

`COC(=O)N=P(c1ccccc1)(c1ccccc1)c1ccccc1C(F)(F)F` [[diphenyl[2-(trifluoromethyl)phenyl]phosphoranylidene]carbamic acid, methyl ester]: in assay [1], at 25 mg/kg the inhibition in vivo was 49%. For the same compound, in assay [2], the “Potassium (urinary excretion)” value was 1.02 mEQ/5 Hours, the “Sodium (urinary excretion)” value came to 1.71 mEQ/5 Hours and the “Volume (urine)” value is 18.5 mL.

In assay [1], `O=C(N=P(c1ccccc1)(c1ccccc1)c1ccccc1)OCc1cccnc1` [(triphenylphosphoranylidene)carbamic acid, 3-pyridinylmethyl ester] gave an inhibition in vivo at 25 mg/kg of 40%. In assay [2], the “Potassium (urinary excretion)” value is 1.00 mEQ/5 Hours, the “Sodium (urinary excretion)” value is reported as 1.60 mEQ/5 Hours and the “Volume (urine)” value was determined as 14.5 mL.

With `C=CCOC(=O)N=P(c1ccccc1)(c1ccccc1)c1ccccc1` [(triphenylphosphoranylidene)carbamic acid, 2-propenyl ester], in assay [1], testing at 25 mg/kg gave an inhibition in vivo of 67%. In assay [2], the “Potassium (urinary excretion)” value was 0.67 mEQ/5 Hours, the “Sodium (urinary excretion)” value is given as 1.17 mEQ/5 Hours and the “Volume (urine)” value turned out to be 13.3 mL.

With `Cc1ccccc1P(=NC(=O)OCc1cccnc1)(c1ccccc1)c1ccccc1` [[(2-Methylphenyl)diphenylphosphoranylidene]carbamic acid, 3-pyridinylmethylester], at 25 mg/kg the inhibition in vivo in assay [1] was 75%. In addition, in assay [2], the “Potassium (urinary excretion)” value turned out to be 0.62 mEQ/5 Hours, the “Sodium (urinary excretion)” value was 1.48 mEQ/5 Hours and the “Volume (urine)” value came to 12.3 mL.

Take `CCCOC(=O)N=P(c1ccccc1)(c1ccccc1)c1ccccc1` [(Triphenylphosphoaranylidene)carbamic acid, n-propyl ester]: the inhibition in vivo at 25 mg/kg in assay [1] is 90%. In addition, in assay [2], the “Potassium (urinary excretion)” value stood at 0.48 mEQ/5 Hours, the “Sodium (urinary excretion)” value came out at 1.37 mEQ/5 Hours and the “Volume (urine)” value was found to be 12.5 mL.

In the case of `COC(=O)N=P(c1ccccc1)(c1ccccc1)c1ccccc1Cl` [[(2-chlorophenyl)diphenylphosphoranylidene]carbamic acid, methyl ester], in assay [1], 25 mg/kg produced 98% inhibition in vivo. For the same compound, in assay [2], the “Potassium (urinary excretion)” value is on record as 0.94 mEQ/5 Hours, the “Sodium (urinary excretion)” value amounted to 2.30 mEQ/5 Hours and the “Volume (urine)” value was found to be 20.0 mL.

In assay [1], `CCOC(=O)N=P(c1ccccc1)(c1ccccc1C)c1ccccc1C` [[bis(2-methylphenyl)phenylphosphoranylidene]carbamic acid, ethyl ester] returned an inhibition in vivo at 25 mg/kg of 54%. Also, in assay [2], the “Potassium (urinary excretion)” value is on record as 0.73 mEQ/5 Hours, the “Sodium (urinary excretion)” value came to 1.46 mEQ/5 Hours and the “Volume (urine)” value came to 14.5 mL.

In the case of `CCOC(=O)N=P(c1ccccc1)(c1ccccc1)c1ccccc1Cl` [[(2-chlorophenyl)diphenylphosphoranylidene]carbamic acid, ethyl ester], testing at 25 mg/kg in assay [1] gave an inhibition in vivo of 96%. Moreover, in assay [2], the “Potassium (urinary excretion)” value worked out at 0.71 mEQ/5 Hours, the “Sodium (urinary excretion)” value amounted to 2.05 mEQ/5 Hours and the “Volume (urine)” value turned out to be 19.5 mL.

Compound `CCOC(=O)N=P(c1ccccc1)(c1ccccc1)c1ccccc1C(F)(F)F` [[diphenyl[2-(trifluoromethyl)phenyl]phosphoranylidene]carbamic acid, ethyl ester] yielded an inhibition in vivo at 25 mg/kg in assay [1] of 75%. Further, in assay [2], the “Potassium (urinary excretion)” value was determined as 0.91 mEQ/5 Hours, the “Sodium (urinary excretion)” value was determined as 2.12 mEQ/5 Hours and the “Volume (urine)” value worked out at 19.3 mL.

The compound `COC(=O)N=P(c1ccccc1)(c1ccccc1)c1c(C)cccc1C` [[(2,6-dimethylphenyl)diphenylphosphoranylidene]carbamic acid, methyl ester] registered an inhibition in vivo at 25 mg/kg in assay [1] of 68%. In assay [2], the “Potassium (urinary excretion)” value is given as 0.84 mEQ/5 Hours, the “Sodium (urinary excretion)” value is 1.33 mEQ/5 Hours and the “Volume (urine)” value is 12.8 mL.

Take `CCOC(=O)N=P(c1ccccc1)(c1ccccc1)c1ccccc1C` [[(2-Methylphenyl)diphenylphosphoranylidene]carbamic acid, ethyl ester]: the inhibition in vivo at 25 mg/kg in assay [1] is 92%. In addition, in assay [2], the “Potassium (urinary excretion)” value is listed as 0.78 mEQ/5 Hours, the “Sodium (urinary excretion)” value is on record as 2.68 mEQ/5 Hours and the “Volume (urine)” value is 25.5 mL.

Turning to `O=C(N=P(c1ccccc1)(c1ccccc1)c1ccccc1)OC1CCOC1` (centres unmarked) [(Triphenylphosphoranylidene)carbamic acid, tetrahydro-3-furanyl ester], in assay [1], 25 mg/kg produced 69% inhibition in vivo. Moreover, at 50 mg/kg the inhibition in vivo in assay [1] (50 mg/kg oral) was 49%. For the same compound, the inhibition in vivo at 100 mg/kg in assay [1] (100 mg/kg oral) came to 85%. Also, in assay [2], the “Potassium (urinary excretion)” value is 0.70 mEQ/5 Hours, the “Sodium (urinary excretion)” value came out at 1.10 mEQ/5 Hours and the “Volume (urine)” value amounted to 14.8 mL.
